Structures are written as SMILES.

In data set [1] the target is T1, integrins haα4 and β1 (VLA-4) expressed on CHO cells (Homo sapiens, UniProt P05556+P13612).
T1 construct: expressed in transfected cells; host or cells: CHO cells
Kind of data set: In vitro Evaluation Test (1): binding of Eu3+-hVCAM-1 D1D7-IgG to CHO cells expressing integrins α4 and β1. The note with it: inhibition of Eu3+-hVCAM-1 D1D7-IgG binding to CHO cells expressing α4β1; Ki calculated from IC50. The method in brief: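 CHO cells transduced with human α4 and β1 were grown for 2 days. They were incubated 1 h at room temperature with Eu3+-hVCAM-1 D1D7-IgG (diluted to 2 nM before addition) and compound, with or without 6% HSA, in HEPES pH 7.5 containing Ca2+, Mg2+ and 4 mM Mn2+. Time-resolved fluorescence gave IC50; Ki used a Scatchard-derived Kd (0.06–20 nM).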

Data set [2] in a line: Evaluation of oral bioavailability by mouse bioassay. The note with it: 10 mg/kg oral, female Balb/C mice, serum 15 minutes after administration, read-out: Blood level. It counts as in vivo. As to the method:
A test compound was suspended or dissolved in a proper administration medium to give a concentration of 1 mg/ml. To 7 to 9 week old female Balb/C mice, 10 mg/kg of the resulting suspension or solution was orally administered. Fifteen minutes after the administration, blood was collected from the postcava under anesthesia with ether and the serum was separated from it. The concentration of each test compound was determined by estimating the serum level from a calibration curve obtained with VCAM-1/VLA-4 inhibitory activity as an index or measuring the concentration by using LC/MS/MS.

T1 sequence (P13612 34-1032): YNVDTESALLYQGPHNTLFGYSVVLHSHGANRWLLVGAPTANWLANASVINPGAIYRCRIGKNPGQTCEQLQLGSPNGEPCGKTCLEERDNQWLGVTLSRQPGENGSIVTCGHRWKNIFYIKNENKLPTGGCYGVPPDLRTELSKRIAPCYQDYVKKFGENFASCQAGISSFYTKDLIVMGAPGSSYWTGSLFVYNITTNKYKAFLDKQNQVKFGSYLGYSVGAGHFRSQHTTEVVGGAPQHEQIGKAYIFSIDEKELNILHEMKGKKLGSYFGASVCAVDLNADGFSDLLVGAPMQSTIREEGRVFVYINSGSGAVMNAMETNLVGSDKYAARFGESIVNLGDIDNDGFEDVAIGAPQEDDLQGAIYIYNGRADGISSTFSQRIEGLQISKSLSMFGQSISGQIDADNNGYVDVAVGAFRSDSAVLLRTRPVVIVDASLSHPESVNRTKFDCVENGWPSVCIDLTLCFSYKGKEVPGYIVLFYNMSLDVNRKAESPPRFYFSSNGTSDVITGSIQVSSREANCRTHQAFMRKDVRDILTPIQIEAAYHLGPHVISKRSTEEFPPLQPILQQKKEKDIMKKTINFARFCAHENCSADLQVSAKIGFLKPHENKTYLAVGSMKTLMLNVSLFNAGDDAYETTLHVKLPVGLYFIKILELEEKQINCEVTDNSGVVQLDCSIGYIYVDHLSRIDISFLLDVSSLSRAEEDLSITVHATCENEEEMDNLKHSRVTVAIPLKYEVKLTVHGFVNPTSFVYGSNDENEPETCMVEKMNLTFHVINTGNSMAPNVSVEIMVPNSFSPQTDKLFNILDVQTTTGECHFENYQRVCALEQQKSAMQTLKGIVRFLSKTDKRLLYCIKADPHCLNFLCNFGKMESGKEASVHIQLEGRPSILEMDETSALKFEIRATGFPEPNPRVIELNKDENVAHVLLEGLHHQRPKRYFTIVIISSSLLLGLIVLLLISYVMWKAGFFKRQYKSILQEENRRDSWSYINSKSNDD
T1 sequence (P05556 21-798): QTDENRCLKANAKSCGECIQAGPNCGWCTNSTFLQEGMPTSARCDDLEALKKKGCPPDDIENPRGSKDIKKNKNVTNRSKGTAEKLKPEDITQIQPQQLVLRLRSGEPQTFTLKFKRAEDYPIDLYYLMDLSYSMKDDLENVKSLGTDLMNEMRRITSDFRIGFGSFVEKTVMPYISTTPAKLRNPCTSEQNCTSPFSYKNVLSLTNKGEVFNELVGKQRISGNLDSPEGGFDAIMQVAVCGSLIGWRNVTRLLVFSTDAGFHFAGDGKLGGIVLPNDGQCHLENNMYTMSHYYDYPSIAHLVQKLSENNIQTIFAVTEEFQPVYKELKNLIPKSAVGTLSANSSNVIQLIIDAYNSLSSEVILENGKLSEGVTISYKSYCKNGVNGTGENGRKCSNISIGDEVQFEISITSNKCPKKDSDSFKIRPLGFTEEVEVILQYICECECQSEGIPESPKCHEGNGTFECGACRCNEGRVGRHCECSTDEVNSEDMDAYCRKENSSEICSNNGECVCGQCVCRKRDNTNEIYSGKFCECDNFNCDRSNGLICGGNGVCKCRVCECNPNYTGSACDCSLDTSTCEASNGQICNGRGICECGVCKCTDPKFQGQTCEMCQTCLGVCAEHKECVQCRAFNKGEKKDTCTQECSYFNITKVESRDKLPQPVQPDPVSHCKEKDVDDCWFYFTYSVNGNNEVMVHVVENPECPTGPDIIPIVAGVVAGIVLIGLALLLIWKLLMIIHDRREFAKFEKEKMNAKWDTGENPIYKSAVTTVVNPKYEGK

By Ki is commonly meant the dissociation constant of the complex between target and ligand, obtained from inhibition or displacement. For the compound `COC[C@H]1CC[C@@H](CO[C@H]2CC[C@H](C(=O)O)CC2)N1C(=O)Cc1cc(Cl)c(NC(=O)c2cn(C)c3ccccc23)cc1F` [Example 164, trans-4-(1-((5-Chloro-2-fluoro-4-((1-methyl-3-indolylcarbonyl)amino)phenyl)acetyl)-(5R)-methoxymethyl-(2S)-pyrrolidinylmethoxy)cyclohexanecarboxylic acid], the Ki in data set [1] was 6.4 nM. The concentration at 15 min in data set [2] stood at 2300 ng/mL. Taken in the same sequence, the figures for `Cn1cc(-c2nc3ccc(CC(=O)N4C[C@@H](F)C[C@H]4CO[C@H]4CC[C@H](C(=O)O)CC4)c(F)c3o2)c2ccccc21` [Example 98, trans-4-(1-((7-Fluoro-2-(1-methyl-3-indolyl)-6-benzoxazolyl)acetyl)-(4S)-fluoro-(2S)-pyrrolidinylmethoxy)cyclohexanecarboxylic acid] were 3.6 nM and 2210 ng/mL. In the same order, the values of `Cn1cc(C(=O)Nc2ccc(CC(=O)N3C[C@@H](F)C[C@H]3COC3CCC(C(=O)O)CC3)cc2Cl)c2ccccc21` (stereo partly drawn) [Example 39, 4-(1-(3-Chloro-4-(1-methyl-3-indolylcarbonylamino)phenylacetyl)-(4S)-fluoro-(2S)-pyrrolidinylmethoxy)cyclohexanecarboxylic acid] are 2.1 nM and 5160 ng/mL. Taken in the same sequence, the figures for `Cc1ccccc1Nc1nc2ccc(CC(=O)N3C[C@@H](Sc4ccccc4)C[C@H]3CO[C@H]3CC[C@H](C(=O)O)CC3)cc2o1` [Example 123] were 5.8 nM and 705 ng/mL. `O=C(O)C1CCC(OC[C@@H]2C[C@H](F)CN2C(=O)Cc2ccc(NC(=O)N3CCc4ccccc43)c(Cl)c2)CC1` (stereo partly drawn) [Example 36, 4-(1-(3-Chloro-4-(1-indolinylcarbonylamino)phenylacetyl)-(4S)-fluoro-(2S)-pyrrolidinylmethoxy)cyclohexanecarboxylic acid]: the Ki in data set [1] is 1.5 nM. For the same compound, in data set [2], the concentration at 15 min came to 1100 ng/mL. In the case of `Cn1cc(C(=O)Nc2cc(F)c(CC(=O)N3C[C@@H](F)C[C@H]3CO[C@H]3CC[C@H](C(=O)O)CC3)cc2Cl)c2ccccc21` [Example 65, trans-4-(1-((5-Chloro-2-fluoro-4-((1-methyl-3-indolylcarbonyl)amino)phenyl)acetyl)-(4S)-fluoro-(2S)-pyrrolidinylmethoxy)cyclohexanecarboxylic acid], in data set [1], the Ki is 4 nM. In data set [2], the concentration at 15 min amounted to 11500 ng/mL. Taken in the same sequence, the figures for `CO[C@@H]1C[C@@H](CO[C@H]2CC[C@H](C(=O)O)CC2)N(C(=O)Cc2cc(Cl)c(NC(=O)c3cn(C)c4ccccc34)cc2F)C1` [Example 115, trans4-(1-((5-chloro-2-fluoro-4-(1-methyl-3-indolylcarbonylamino)phenyl)acetyl)-(4R)-methoxy-(2S)-pyrrolidinylmethoxy)cyclohexanecarboxylic acid] were 30 nM and 888 ng/mL. Taken in the same sequence, the figures for `COC[C@H]1CC[C@@H](CO[C@H]2CC[C@H](C(=O)O)CC2)N1C(=O)Cc1cc(Cl)c(NC(=O)c2nn(C)c3ccccc23)cc1F` [Example 166, trans-4-(1-((5-Chloro-2-fluoro-4-((1-methyl-3-indazolylcarbonyl)amino)phenyl)acetyl)-(5R)-methoxymethyl-(2S)-pyrrolidinylmethoxy)cyclohexanecarboxylic acid] were 7.9 nM and 3070 ng/mL.

Turning to `Cn1cc(C(=O)Nc2cc(F)c(CC(=O)N3C[C@@H](F)C[C@H]3CO[C@H]3CC[C@H](C(=O)O)CC3)cc2F)c2ccccc21` [Example 71, trans-4-(1-(2,5-Difluoro-4-((1-methyl-1H-3-indolylcarbonyl)amino)phenylacetyl)-(4S)-fluoro-(2S)-pyrrolidinylmethoxy)cyclohexanecarboxylic acid], the Ki in data set [1] was 18 nM. In addition, the concentration at 15 min in data set [2] was found to be 7340 ng/mL. Regarding `CO[C@@H]1CN(C(=O)Cc2ccc3nc(Nc4ccccc4C)oc3c2)C[C@@H]1Oc1ccc(C(=O)O)cc1` [Example 155, 4-((4R)-Methoxy-1-((2-(2-methylphenylamino)-6-benzoxazolyl)acetyl)-(3S)-pyrrolidinyloxy)benzoic acid], the Ki in data set [1] is 20 nM. The concentration at 15 min in data set [2] turned out to be 571 ng/mL.

For `CO[C@H]1C[C@@H](CO[C@H]2CC[C@H](C(=O)O)CC2)N(C(=O)Cc2cc(Cl)c(NC(=O)c3cn(C)c4ccccc34)cc2Cl)C1` [Example 170, trans-4-(1-(2,5-Dichloro-4-((1-methyl-1H-3-indolylcarbonyl)amino)phenylacetyl)-(4S)-methoxy-(2S)-pyrrolidinylmethoxy)cyclohexanecarboxylic acid], the Ki in data set [1] is 4.3 nM. The concentration at 15 min in data set [2] was 3360 ng/mL.

Consider `Cn1cc(C(=O)Nc2cc(F)c(CC(=O)N3C[C@@H](F)C[C@H]3CN[C@H]3CC[C@H](C(=O)O)CC3)cc2Cl)c2ccccc21` [Example 107, trans-4-(N-(1-((5-Chloro-2-fluoro-4-((1-methyl-3-indolylcarbonyl)amino)phenyl)acetyl)-(4S)-fluoro-(2S)-pyrrolidinylmethyl)amino)cyclohexanecarboxylic acid], for which, in data set [1], the Ki is 11 nM.

In the case of `Cc1ccc(F)cc1Nc1nc2ccc(CC(=O)N(C)[C@@H](C)CO[C@H]3CC[C@H](C(=O)O)CC3)c(F)c2o1` [Example 145, trans-4-((2S)-((7-Fluoro-2-((5-fluoro-2-methylphenyl)amino)-6-benzoxazolyl)-N-methylacetamido)-1-propoxy)-1-cyclohexanecarboxylic acid], the Ki in data set [1] is 18 nM. As to `O=C(Nc1ccc(CC(=O)N2C[C@@H](F)C[C@H]2CO[C@H]2CC[C@H](C(=O)O)CC2)cc1Cl)c1nccc2ccc(F)cc12` [Example 82, trans-4-(1-((3-Chloro-4-((7-fluoro-1-isoquinolinylcarbonyl)amino)phenyl)acetyl)-(4S)-fluoro-(2S)-pyrrolidinylmethoxy)cyclohexanecarboxylic acid], the Ki in data set [1] was 18 nM. The same measure, in the same setting: next, `Cc1ccc(F)cc1Nc1nc2ccc(CC(=O)N3C[C@@H](C)C[C@H]3CO[C@H]3CC[C@H](C(=O)O)CC3)c(F)c2o1` [Example 134]: 3.1 nM; `Cn1cc(C(=O)Nc2cc(F)c(CC(=O)N3C[C@@H](S(C)(=O)=O)C[C@H]3CO[C@H]3CC[C@H](C(=O)O)CC3)cc2Cl)c2ccccc21` [Example 128, trans-4-(1-((5-Chloro-2-fluoro-4-((1-methyl-3-indolylcarbonyl)amino)phenyl)acetyl)-(4S)-methanesulfonyl-(2S)-pyrrolidinylmethoxy)cyclohexanecarboxylic acid]: 2.7 nM. For the compound `O=C(Nc1ccc(CC(=O)N2C[C@@H](F)C[C@H]2COC2CCC(C(=O)O)CC2)cc1Cl)c1c[nH]c2ccccc12` (stereo partly drawn) [Example 38, 4-(1-(3-Chloro-4-(3-indolylcarbonylamino)phenylacetyl)-(4S)-fluoro-(2S)-pyrrolidinylmethoxy)cyclohexanecarboxylic acid], the Ki in data set [1] was 0.43 nM. On the same count and under the same terms, next, `COc1cc(CC(=O)N2C[C@@H](F)C[C@H]2COc2ccc(C(=O)O)cc2)cc2oc(Nc3ccccc3C)nc12` [Example 3, 4-((4S)-Fluoro-1-(4-methoxy-2-(2-methylphenylamino)-6-benzoxazolylacetyl)-(2S)-pyrrolidinylmethoxy)benzoic acid]: 40 nM; `Cc1ccc(F)cc1Nc1nc2c(F)cc(CC(=O)N3C[C@@H](F)C[C@H]3CO[C@H]3CC[C@H](C(=O)O)CC3)cc2o1` [Example 47, trans-4-(1-((2-(5-Fluoro-2-methylphenylamino)-4-fluoro-6-benzoxazolyl)acetyl)-(4S)-fluoro-(2S)-pyrrolidinylmethoxy)cyclohexanecarboxylic acid]: 5.8 nM; `Cc1ccccc1Nc1nc2ccc(CC(=O)N3C[C@@H](S(=O)(=O)c4ccccc4)C[C@H]3CO[C@H]3CC[C@H](C(=O)O)CC3)cc2o1` [Example 124, trans-4-(1-((2-(2-Methylphenylamino)-6-benzoxazolyl)acetyl)-(4S)-phenylsulfonyl-(2S)-pyrrolidinylmethoxy)cyclohexanecarboxylic acid]: 1.4 nM.

Take `Cc1ccccc1Nc1nc2ccc(CC(=O)N3C[C@@H](F)C[C@H]3COc3ccc(C(=O)O)cc3)cc2o1` [Example 2, 4-((4S)-Fluoro-1-(2-(2-methylphenylamino)-6-benzoxazolylacetyl)-(2S)-pyrrolidinylmethoxy)benzoic acid]: in data set [1], the inhibition constant (Ki) was 17 nM. On to `Cc1ccc(F)cc1Nc1nc2ccc(CC(=O)N3[C@H](CO[C@H]4CC[C@H](C(=O)O)CC4)CC[C@@H]3C)c(F)c2o1` [Example 137, trans-4-(1-((2-(5-Fluoro-2-methylphenylamino)-7-fluoro-6-benzoxazolyl)acetyl)-(5S)-methyl-(2S)-pyrrolidinylmethoxy)cyclohexanecarboxylic acid], for which the Ki in data set [1] was 5.6 nM.

Take `C[C@@H](CO[C@H]1CC[C@H](C(=O)O)CC1)N(C)C(=O)Cc1cc(Cl)c(NC(=O)c2cn(C)c3ccccc23)cc1F` [Example 144, trans-4-((2S)-((5-Chloro-2-fluoro-4-(1-methyl-3-indolylcarbonylamino)phenyl)-N-methylacetamido)-1-propoxy)-1-cyclohexanecarboxylic acid]: the Ki in data set [1] was 48 nM.
